We go through eleven compounds from patent US20220220095A1, “N-((HETEROARYL)METHYL)-1-TOSYL-1H-PYRAZOLE-3-CARBOXAMIDE DERIVATIVES AS Kv3 POTASSIUM CHANNEL ACTIVATORS FOR TREATING NEUROLOGICAL AND [sequence] DISORDERS” (H. Lundbeck A/S, priority 2019, published 2022).

The target of the assay is T1, hKv3.1b (Homo sapiens, UniProt P48547).
T1 construct: expressed in transfected cells
T1 sequence (P48547 1-585 isoform P48547-2): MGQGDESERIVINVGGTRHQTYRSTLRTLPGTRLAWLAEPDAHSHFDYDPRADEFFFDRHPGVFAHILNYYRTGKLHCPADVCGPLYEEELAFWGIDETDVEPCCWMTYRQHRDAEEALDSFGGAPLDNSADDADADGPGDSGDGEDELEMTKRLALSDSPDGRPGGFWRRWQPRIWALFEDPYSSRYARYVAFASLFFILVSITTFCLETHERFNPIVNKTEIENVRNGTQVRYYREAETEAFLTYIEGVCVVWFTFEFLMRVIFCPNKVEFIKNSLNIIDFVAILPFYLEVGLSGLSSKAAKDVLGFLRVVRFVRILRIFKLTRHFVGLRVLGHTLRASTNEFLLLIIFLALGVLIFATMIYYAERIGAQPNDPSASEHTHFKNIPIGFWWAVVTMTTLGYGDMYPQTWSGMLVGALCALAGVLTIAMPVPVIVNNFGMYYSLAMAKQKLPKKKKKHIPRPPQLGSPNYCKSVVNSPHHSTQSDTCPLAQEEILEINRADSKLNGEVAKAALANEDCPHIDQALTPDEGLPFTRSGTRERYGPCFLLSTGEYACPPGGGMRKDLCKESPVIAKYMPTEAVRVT
Put plainly: Automated whole-cell patch-clamp (QPatch-16x) on HEK-293 cells stably expressing hKv3.1b: shift of voltage threshold for channel activation. The class given is cell-based. To be noted: HEK-293 hKv3.1b; for ECdelta5mV: concentration needed to shift the threshold 5 mV, read out from fitted concentration response curve; for Max Delta threshold: maximum absolute shift of activation threshold to more hyperpolarized potentials at the tested concentrations (0.37, 1.11, 3.33, 10, 30 μM). (In patch-clamp work, channel activity is measured electrically.)

For `Cc1cnc(CNC(=O)c2ccn(S(=O)(=O)c3ccccc3Cl)n2)cn1` [Compound 84, 1-(2-chlorophenyl)sulfonyl-N-[(5-methylpyrazin-2-yl)methyl]pyrazole-3-carboxamide], the ECdelta5mV is listed as 7700 nM and the “Max Delta threshold” value is on record as 12 mV.
On the same counts, the results for `Cc1cnc(CNC(=O)c2ccn(S(=O)(=O)c3ccc(C(F)F)cc3)n2)cn1` [Compound 71, 1-[4-(difluoromethyl)phenyl]sulfonyl-N-[(5-methylpyrazin-2-yl)methyl]pyrazole-3-carboxamide] are 3500 nM and 27 mV.
On the same counts, the results for `Cc1cnc(CNC(=O)c2ccn(S(=O)(=O)c3ccc(C(F)(F)F)cc3)n2)cn1` [Compound 78, N-[(5-methylpyrazin-2-yl)methyl]-1-[4-(trifluoromethyl)phenyl]sulfonyl-pyrazole-3-carboxamide] are 3000 nM and 23 mV.
For the compound `COc1ccc(S(=O)(=O)n2ccc(C(=O)NCc3nc(C)cs3)n2)cc1` [Compound 6, 1-(4-methoxybenzene-1-sulfonyl)-N-[(4-methyl-1,3-thiazol-2-yl)methyl]-1H-pyrazole-3-carboxamide], the ECdelta5mV is recorded as 1300 nM and the “Max Delta threshold” value is 22 mV.
In the same order, the values of `Cc1cnc(CNC(=O)c2ccn(S(=O)(=O)c3ccc(F)cc3C)n2)cn1` [Compound 66, 1-(4-fluoro-2-methyl-phenyl)sulfonyl-N-[(5-methylpyrazin-2-yl)methyl]pyrazole-3-carboxamide] are 2400 nM and 31 mV.
On the same counts, the results for `COc1ccc(S(=O)(=O)n2ccc(C(=O)NCc3cnn(C)c3)n2)cc1` [Compound 41, 1-(4-methoxybenzene-1-sulfonyl)-N-[(1-methyl-1H-pyrazol-4-yl)methyl]-1H-pyrazole-3-carboxamide] are 1200 nM and 25 mV.
On the same counts, the results for `COc1ccc(S(=O)(=O)n2ccc(C(=O)NCc3cnc(C)cn3)n2)cc1F` [Compound 74, 1-(3-fluoro-4-methoxy-phenyl)sulfonyl-N-[(5-methylpyrazin-2-yl)methyl]pyrazole-3-carboxamide] are 3200 nM and 17 mV.
Consider `Cc1cnc(CNC(=O)c2ccn(S(=O)(=O)c3c(C)cc(F)cc3C)n2)cn1` [Compound 83, 1-(4-fluoro-2,6-dimethyl-phenyl)sulfonyl-N-[(5-methylpyrazin-2-yl)methyl]pyrazole-3-carboxamide], for which the ECdelta5mV was 2700 nM and the “Max Delta threshold” value worked out at 21 mV.
Regarding `COc1ccc(S(=O)(=O)n2ccc(C(=O)NCc3cnc(C)cn3)n2)cc1C` [Compound 1, 1-(4-methoxy-3-methylbenzene-1-sulfonyl)-N-[(5-methylpyrazin-2-yl)methyl]-1H-pyrazole-3-carboxamide], the ECdelta5mV is on record as 1800 nM and the “Max Delta threshold” value was 23 mV.
In the same order, the values of `Cc1ccc(CNC(=O)c2ccn(S(=O)(=O)c3ccc(F)cc3)n2)nc1` [Compound 34, 1-(4-fluorobenzene-1-sulfonyl)-N-[(5-methylpyridin-2-yl)methyl]-1H-pyrazole-3-carboxamide] are 2800 nM and 17 mV.
On the same counts, the results for `Cc1cnc(CNC(=O)c2ccn(S(=O)(=O)c3ccc(OC(F)(F)F)cc3)n2)cn1` [Compound 70, N-[(5-methylpyrazin-2-yl)methyl]-1-[4-(trifluoromethoxy)phenyl]sulfonyl-pyrazole-3-carboxamide] are 4000 nM and 19 mV.
